Test results published in patent publication US9447090B2, “Imidazopyridine compounds” (Astellas Pharma Inc., priority 2011, dated 2016).

Legend:
human purified sGC = human purified sGC (Homo sapiens (Human), UniProt Q02108+Q02153); assay: Measurement of sGC activation (enzyme): cGMP produced by human purified sGC, HTRF; assay type: biochemical; conditions: for EC50: concentration giving 50% of maximum activation; for sGC activation [%]: activation when the compound was not added taken as 100%, maximum concentration 100 μM, with SNP
Sequence of human purified sGC (Q02153 whole entry): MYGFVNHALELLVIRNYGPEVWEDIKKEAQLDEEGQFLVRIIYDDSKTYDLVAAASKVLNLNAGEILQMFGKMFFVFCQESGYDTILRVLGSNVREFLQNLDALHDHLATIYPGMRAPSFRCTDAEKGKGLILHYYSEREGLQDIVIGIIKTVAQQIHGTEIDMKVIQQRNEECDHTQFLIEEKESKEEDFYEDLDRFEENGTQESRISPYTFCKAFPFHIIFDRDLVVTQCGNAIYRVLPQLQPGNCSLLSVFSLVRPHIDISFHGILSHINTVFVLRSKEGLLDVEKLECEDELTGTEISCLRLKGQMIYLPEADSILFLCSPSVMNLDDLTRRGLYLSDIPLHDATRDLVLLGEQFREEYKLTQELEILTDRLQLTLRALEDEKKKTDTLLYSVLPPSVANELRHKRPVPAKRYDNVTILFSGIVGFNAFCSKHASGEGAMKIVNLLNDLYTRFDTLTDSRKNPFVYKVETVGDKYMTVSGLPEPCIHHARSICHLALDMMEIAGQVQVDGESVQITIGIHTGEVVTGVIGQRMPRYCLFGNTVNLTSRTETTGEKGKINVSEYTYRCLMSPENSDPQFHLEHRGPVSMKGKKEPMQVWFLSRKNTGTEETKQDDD
Sequence of human purified sGC (Q02108 whole entry): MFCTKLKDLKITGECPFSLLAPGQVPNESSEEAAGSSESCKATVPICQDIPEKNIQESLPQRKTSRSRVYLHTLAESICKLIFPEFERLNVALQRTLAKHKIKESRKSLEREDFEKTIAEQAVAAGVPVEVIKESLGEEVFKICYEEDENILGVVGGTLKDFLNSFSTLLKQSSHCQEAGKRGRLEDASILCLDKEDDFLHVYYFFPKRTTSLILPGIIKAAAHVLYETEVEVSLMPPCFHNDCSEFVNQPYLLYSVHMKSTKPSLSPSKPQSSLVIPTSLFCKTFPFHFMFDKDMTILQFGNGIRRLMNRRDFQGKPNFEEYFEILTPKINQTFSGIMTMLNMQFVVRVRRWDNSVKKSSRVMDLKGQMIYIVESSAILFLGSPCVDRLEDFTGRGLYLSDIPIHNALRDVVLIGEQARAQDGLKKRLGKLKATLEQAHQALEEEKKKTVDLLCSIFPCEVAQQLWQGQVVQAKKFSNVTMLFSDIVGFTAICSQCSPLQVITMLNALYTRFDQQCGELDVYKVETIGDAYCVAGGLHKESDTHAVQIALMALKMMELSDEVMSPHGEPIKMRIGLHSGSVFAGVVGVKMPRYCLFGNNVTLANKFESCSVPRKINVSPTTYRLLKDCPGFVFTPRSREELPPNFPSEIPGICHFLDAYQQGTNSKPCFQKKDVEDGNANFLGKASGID
Experimental: The activity of sGC was evaluated by measuring the amount of a cyclic guanosine monophosphate (cGMP) which is produced by human purified sGC.
A test compound was dissolved in DMSO and diluted 20-fold with ultrapure water. 2 μL of the diluted test compound solution (maximum concentration 100 μM), 2 μL of a substrate solution [0.5 μM TEBA, 0.03 μM dithiothreitol, 0.01 μM GTP, 0.04 μM MgCl2, and 0.03 μM sodium nitroprusside (SNP)], and 6 μL of a human enzyme suspension were added to 384-well plates (manufactured by Greiner Bio-One), and incubated at room temperature for one hour. The quantitative determination of cGMP is using HTRF which based on the competition between sample cGMP and fluorescent dye labeled cGMP for binding to a cGMP-specific antibody.
The test results of some Example compounds that are the compounds of the formula (I) of the present invention are shown below. The sGC activation of the test compound was calculated by taking the activation when the compound was not added as 100%. As compared with the activation when the compound was not added, it was recognized that a compound having a sGC activation of more than 300% has sGC activation. In addition, in Tables, Ex represents Example number in which the test compound is described and the sGC activation [%] represents sGC activation (%).
Furthermore, the EC50 [μM] value was calculated as another parameter for expressing sGC activation. This parameter indicates the concentration of the evaluated compound giving 50% of a maximum activation, which is calculated based on the maximum activation that compound of Example 102 is added, which is taken as 100%. In this connection, when a known sGC activator, YC-1 (Lificiguat, [5-(1-benzyl-1H-indazol-3-yl)-2-furyl]methanol), was evaluated according to the above Test Example 1, its maximum activation was 52% of the maximum activation for compound of Example 102. Further, “−” means no evaluation.

Wistar male rats [1] = assay: Blood flow increasing in vivo: hind limb blood flow in anesthetized rats, laser blood flow imaging; conditions: rat hind limb, oral, 2 hours after administration
Experimental: The hind limb blood flow in rats anesthetized with pentobarbital was measured by the following test method. Wistar male rats were used. […] Thus prepared administration liquid was orally administered, and 2 hours later, the hind limb blood flow was measured using a laser blood flow imaging device (PIM II Integral) under anesthesia with intraperitoneal administration of 60 mg/kg of pentobarbital.

Wistar male rats [2] = assay: Measurement of antihypertensive effect in vivo: blood pressure via carotid cannula after oral dosing; conditions: rat
Experimental: Wistar male rats were used. Three days prior to administration of a drug, a cannula (PE-50, Becton, Dickinson and Company, Japan) filled with heparin physiological saline (200 U/mL, Ajinomoto Pharmaceuticals Co., Ltd.) was inserted and placed in the common carotid artery under anesthesia with intraperitoneal administration of 60 mg/kg of pentobarbital. The other end of the cannula was exposed to the back neck through the subcutaneous. After the recovery period, the placed cannula was connected to a pressure transducer (Life Kit DTS DX-100, Nihon Kohden Corporation) to record the blood pressure waveform through a Polygraph (AP-641G, Nihon Kohden Co., Ltd.) and PowerLab (ML870 PowerLab8/30 (AD Instruments Japan)). The heart rate was calculated using a heart rate measuring unit (AT-601G, Nihon Kohden Co., Ltd.). After stabilization of the blood pressure, the drug was orally administered to measure the blood pressure and the heart rates. The test compounds were administered by appropriately adding N,N-dimethylformamide, Polyethylene Glycol 400, TWEEN 80, a 0.5% aqueous methylcellulose solution, and a 0.5 M aqueous sodium bicarbonate solution, and 0.1 M hydrochloric acid therein according to the compounds and dissolving it.
The results from the measurement according to Test Example 3 are shown below according to the following criteria with a maximum value of the mean blood pressure reduction. A: <20 mmHg, B: 20 to 40 mmHg, and C: >40 mmHg

[3] = maximum activation of Example 102 taken as 100%

| sGC activation [%] (human purified sGC) | Structure (SMILES) | EC50 (human purified sGC; [3]) | blood flow increasing effect (Wistar male rats [1]; dose of 10 mg/kg) | further results |
| --- | --- | --- | --- | --- |
| – | Cc1nc2c(OCc3cccc(F)c3F)cccn2c1C(=O)N[C@@H]1c2ccccc2[C@H](O)[C@H]1O (stereo in doubt) [Ex 797] | 8.9 µM | – | – |
| – | Cc1nc2c(OCc3ccccc3F)cccn2c1C(=O)N[C@@H]1c2ccccc2[C@H](O)[C@H]1O (stereo in doubt) [Ex 798] | 8.6 µM | – | – |
| – | Cc1nc2c(OCC3CCCCC3)cccn2c1C(=O)N[C@@H](CO)c1ccccc1 [Ex 102] | 2.8 µM | exhibited a blood flow increasing effect | – |
| – | Cc1nc2c(OCc3c(F)cccc3F)cccn2c1C(=O)N[C@@H](CO)c1ccccc1.Cl [Ex 119] | 2.9 µM | exhibited a blood flow increasing effect | – |
| – | Cc1nc2c(OCC3CCCCC3)cccn2c1C(=O)NC(CO)CO [Ex 126] | 11 µM | – | – |
| – | Cc1nc2c(OCC3CCCCC3)cccn2c1C(=O)N[C@@H](CC(=O)O)CC1CCC1 [Ex 179] | 2.7 µM | exhibited a blood flow increasing effect | – |
| >1000% | Cc1nc2c(OCCC(C)(C)C)cccn2c1C(=O)N[C@@H](CO)c1ccccc1.Cl [Ex 205] | – | – | – |
| >1000% | Cc1nc2c(OCC3CCCCC3)cccn2c1C(=O)N[C@H]1CCCN(C)C1 [Ex 226] | 6.7 µM | – | – |
| >1000% | Cc1nc2c(OCc3c(F)ccc(F)c3F)cccn2c1C(=O)N[C@@H](CO)c1ccccc1.Cl [Ex 244] | – | – | blood flow increasing effect (Wistar male rats [1]; dose of 30 mg/kg): exhibited a blood flow increasing effect |
| – | Cc1nc2c(OCc3c(F)cccc3F)cccn2c1C(=O)N[C@H]1CCCN(S(N)(=O)=O)C1 [Ex 247] | 2.4 µM | exhibited a blood flow increasing effect | – |
| >1000% | Cc1nc2c(OCC3CCCCC3)cccn2c1C(=O)N[C@@H](CC(=O)O)c1ccccc1 [Ex 251] | 6.1 µM | exhibited a blood flow increasing effect | – |
| >1000% | Cc1nc2c(OCC3CCCCC3)cccn2c1C(=O)N[C@@H]1c2ccccc2C[C@H]1C(=O)O [Ex 321] | 4.5 µM | exhibited a blood flow increasing effect | – |
| – | Cc1nc2c(OCC3CCCCC3)cccn2c1C(=O)N[C@@H](C)c1cccc(C(=O)O)c1 [Ex 323] | 13 µM | – | – |
| 980% | Cc1nc2c(OCC3CCCCC3)cccn2c1C(=O)N[C@H]1CCN(C)C1 [Ex 341] | 6.9 µM | – | blood flow increasing effect (Wistar male rats [1]; dose of 30 mg/kg): exhibited a blood flow increasing effect |
| – | Cc1nc2c(OCc3c(F)cccc3F)cccn2c1C(=O)N[C@@H]1c2ccccc2C[C@H]1O.Cl [Ex 430] | 2.6 µM | exhibited a blood flow increasing effect | – |
| – | Cc1nc2c(OCc3c(F)cccc3F)cccn2c1C(=O)N[C@@H]1c2ccccc2C[C@@H]1O.Cl [Ex 431] | – | – | Blood pressure reduction (maximum value of the mean blood pressure reduction) (Wistar male rats [2]; 10 mg/kg po): B (B: 20 to 40 mmHg) |
| – | Cc1nc2c(OCc3c(F)cccc3F)cccn2c1C(=O)N[C@@H]1c2ccccc2C[C@H]1C(=O)O [Ex 434] | 7.3 µM | – | Blood pressure reduction (maximum value of the mean blood pressure reduction) (Wistar male rats [2]; 30 mg/kg po): C (C: >40 mmHg) |
| >1000% | Cc1nc2c(OCc3c(F)cccc3F)cccn2c1C(=O)N[C@@H](CO)c1cccc(F)c1.Cl [Ex 436] | – | – | – |

| sGC activation [%] (human purified sGC) | Structure (SMILES) | EC50 (human purified sGC; [3]) | blood flow increasing effect (Wistar male rats [1]; dose of 10 mg/kg) | further results |
| --- | --- | --- | --- | --- |
| >1000% | Cc1cccc2c1C[C@@H](C(=O)O)[C@@H]2NC(=O)c1c(C)nc2c(OCC3CCCCC3)cccn12 [Ex 693] | 17 µM | exhibited a blood flow increasing effect | – |
| >1000% | Cc1nc2c(OCC3CCCCC3)cccn2c1C(=O)N[C@@H]1c2c(F)cccc2C[C@H]1C(=O)O [Ex 704] | 11 µM | exhibited a blood flow increasing effect | – |
| – | Cc1nc2c(OCC3CCCCC3)cccn2c1C(=O)N[C@H]1c2c(F)cccc2C[C@@H]1C(=O)O [Ex 705] | 11 µM | – | – |
| >1000% | Cc1nc2c(OCC3CCCCC3)cccn2c1C(=O)N[C@@H]1c2ccc(F)cc2C[C@H]1C(=O)O [Ex 706] | 4.7 µM | exhibited a blood flow increasing effect | – |
| – | Cc1nc2c(OCc3c(F)cccc3F)cccn2c1C(=O)N[C@@H]1c2ccccc2[C@@H](O)[C@H]1O [Ex 759] | 2.2 µM | exhibited a blood flow increasing effect | – |
| – | Cc1nc2c(OCc3c(F)cccc3F)cccn2c1C(=O)N[C@H](c1ccccc1)[C@H](O)CO [Ex 760] | 5.9 µM | exhibited a blood flow increasing effect | – |
| – | Cc1nc2c(OCc3c(F)cccc3F)cccn2c1C(=O)N[C@@]1(c2ccccc2)C[C@@H](O)[C@@H](O)C1 [Ex 766] | 17 µM | – | – |
| – | Cc1nc2c(OCc3c(F)cccc3F)cccn2c1C(=O)N[C@]1(c2ccccc2)C[C@@H](O)[C@@H](O)C1 [Ex 767] | 3 µM | exhibited a blood flow increasing effect | – |
| – | Cc1nc2c(OCc3c(F)cccc3F)cccn2c1C(=O)NC(C)(C)CO [Ex 772] | 5.4 µM | – | – |
| – | Cc1nc2c(OCc3c(F)cccc3F)cccn2c1C(=O)N[C@H](C)CO [Ex 776] | 15 µM | – | – |
| – | Cc1nc2c(OCc3c(F)cccc3F)cccn2c1C(=O)N[C@@H](CO)C(C)C [Ex 778] | 6.3 µM | – | – |
| – | Cc1nc2c(OCc3c(F)cccc3F)cccn2c1C(=O)N[C@H]1CCCNC1 [Ex 822] | 5.6 µM | – | – |
| – | Cc1ccc(C(CO)(CO)NC(=O)c2c(C)nc3c(OCc4c(F)cccc4F)cccn23)cc1 [Ex 827] | – | – | Blood pressure reduction (maximum value of the mean blood pressure reduction) (Wistar male rats [2]; 10 mg/kg po): B (B: 20 to 40 mmHg) |
| – | Cc1nc2c(OCc3ccccc3F)cccn2c1C(=O)NC(CO)(CO)c1ccccc1 [Ex 828] | 7.6 µM | – | – |
| – | Cc1nc2c(OCc3cccc(F)c3F)cccn2c1C(=O)NC(CO)(CO)c1ccccc1 [Ex 829] | 2.7 µM | – | – |
| – | Cc1nc2c(OCc3c(F)cccc3F)cccn2c1C(=O)NC(CO)(CO)c1ccccn1 [Ex 834] | 4.1 µM | exhibited a blood flow increasing effect | – |
| – | Cc1nc2c(OCC3CCCCC3)cccn2c1C(=O)N[C@@H](CC(=O)O)CC(C)C [Example 12, (3R)-3-({[8-(cyclohexylmethoxy)-2-methylimidazo[1,2-a]pyridin-3-yl]carbonyl}amino)-5-methylhexanoic acid] | 3 µM | exhibited a blood flow increasing effect | – |
| – | OCc1ccc(-c2nn(Cc3ccccc3)c3ccccc23)o1 [YC-1, [5-(1-benzyl-1H-indazol-3-yl)-2-furyl]methanol, reference compound] | – | – | Emax (human purified sGC; maximum activation of Example 102 taken as 100%, read-out: maximum activation relative to the maximum activation for compound of Example 102): 52% |

| Structure (SMILES) | sGC activation [%] (human purified sGC) | EC50 (human purified sGC; [3]) | blood flow increasing effect (Wistar male rats [1]; dose of 10 mg/kg) | further results |
| --- | --- | --- | --- | --- |
| Cc1nc2c(OCc3c(F)cccc3F)cccn2c1C(=O)NC(CO)(CO)c1ccccc1.Cl [Ex 424] | >1000% | 2.4 µM | exhibited a blood flow increasing effect | – |
| Cc1cccc2c1C[C@@H](C(=O)O)[C@@H]2NC(=O)c1c(C)nc2c(OCc3c(F)cccc3F)cccn12 [Ex 698] | >1000% | 19 µM | exhibited a blood flow increasing effect | – |
| Cc1nc2c(OCc3c(F)cccc3F)cccn2c1C(=O)N[C@@H]1c2c(F)cccc2C[C@H]1C(=O)O [Ex 699] | >1000% | 15 µM | exhibited a blood flow increasing effect | – |
| Cc1nc2c(OCc3c(F)ccc(F)c3F)cccn2c1C(=O)N[C@@H]1c2ccccc2C[C@H]1C(=O)O [Ex 702] | >1000% | 6.2 µM | exhibited a blood flow increasing effect | – |
